Tests used:
[1] = tested on: prostate cancer lesions; assay: [^68Ga]Ga-PSMA-11 PET/CT findings in the same patients; format: in vivo, human (patients); conditions: for SUVmax of undetermined finding: 1 h p.i.
Procedure: The time interval between both, [^89Zr]Zr-PSMA-617 and [^68Ga]Ga-PSMA-11 PET/CT, was 31 ± 18 days (range 5–49 days), with no treatment performed in between. Prostate-specific antigen (PSA) serum level at time of imaging ranged from 0.43 to 1.92 ng/ml. All patients were initially treated with radical prostatectomy (RP). Initial Gleason score ranged from 7a to 9. Four patients underwent salvage treatments such as androgen-deprivation therapy (ADT), lymphadenectomy (LA) or radiation therapy (RT). Detailed patient characteristics including age, Gleason score, primary therapy, salvage therapies, time from initial diagnosis (ID) of prostate cancer, PSA and PSA doubling time (DT) are presented in Table 1. [^89Zr]Zr-PSMA-617 PET/CT imaging was performed on a compassionate use basis under the German Pharmaceutical Act §13 (2b). The medical indication for the examination and the labeling of the tracer were under the direct responsibility of the applying physician. Patients gave their written consent after being thoroughly informed about the general risks of both radiation exposure and application of a novel PET tracer including possible adverse effects of, e.g., therapeutic PSMA tracers. Furthermore, all patients agreed to the publication of the resulting data in accordance with the Declaration of Helsinki.

[2] = parameters: method as in PMID 34326129; conditions: cited from earlier work

Row | SUVmax of undetermined finding ([1]; patient no. 2, pelvic tracer uptake, considered as unspecific uptake) | SUVmax of undetermined finding ([1]; patient no. 4, faint uptake in peritoneal lesion) | Molecule | Findings on [^68Ga]Ga-PSMA-11 PET/CT ([1]; Pt. no 1, PSA 1.92 ng/ml) | Findings on [^68Ga]Ga-PSMA-11 PET/CT ([1]; Pt. no 2, PSA 1.75 ng/ml) | Findings on [^68Ga]Ga-PSMA-11 PET/CT ([1]; Pt. no 3, PSA 0.66 ng/ml) | Findings on [^68Ga]Ga-PSMA-11 PET/CT ([1]; Pt. no 4, PSA 1.77 ng/ml) | Findings on [^68Ga]Ga-PSMA-11 PET/CT ([1]; Pt. no 5, PSA 0.63 ng/ml) | Findings on [^68Ga]Ga-PSMA-11 PET/CT ([1]; Pt. no 6, PSA 0.43 ng/ml) | Findings on [^68Ga]Ga-PSMA-11 PET/CT ([1]; Pt. no 7, PSA 0.68 ng/ml) | Effective dose [2] [mSv/MBq]
1 | 4.47 | 2.06 | O=C([O-])CN(CCN(CC(=O)[O-])Cc1cc(CCC(=O)NCCCCCC(=O)NCCCC[C@H](NC(=O)N[C@@H](CCC(=O)O)C(=O)O)C(=O)O)ccc1[O-])Cc1cc(CCC(=O)O)ccc1[O-].[68Ga+3].[OH3+] [[^68Ga]Ga-PSMA-11] | No suspicious findings | 1 × LNM + undetermined finding (suspicion of right iliac LNM) | No suspicious findings | Undetermined finding (suspicion of peritoneal metastasis) | No suspicious findings | Undetermined finding (suspicion of local recurrence in seminal vesicle bed) | No suspicious findings | 
2 |  |  | [^89Zr]Zr-PSMA-DFO |  |  |  |  |  |  |  | 0.15 ± 0.04

Source: article PMC9606102, “[^89Zr]Zr-PSMA-617 PET/CT in biochemical recurrence of prostate cancer: first clinical experience from a pilot study including biodistribution and dose estimates” (European Journal of Nuclear Medicine and Molecular Imaging, 2022)
